Measurements reported in patent publication US10766864B2, “Morphinan derivatives for the treatment of neuropathic pain” (Nektar Therapeutics, priority 2015, dated 2020).
Where two headings read alike, the source gives them in different places.

Key:
[1] = molecular target: NMDA receptor; assay: Competitive radioligand binding at NMDA receptor ([3H] MK801), rat forebrain membranes; conditions: 0.2 nM [3H] MK801, reflects free base activity
Protocol: (§1) Receptor Binding at MOR and NMDA.
(§2) Affinities of various compounds were measured in vitro using competitive radioligand binding assays. Serial dilutions of test compounds were incubated with membranes prepared from CHO-K1 cells expressing the mu opioid receptor (MOR; for opioid receptor binding) or rat forebrain membranes (for NMDA receptor binding). 2 nM [^3H] Naloxone (MOR) or 0.2 nM [^3H] MK801 (NMDA) were used as the specific, competitive radioligands. 10 uM Naloxone (MOR), or 10 uM MK801 (NMDA) was used to determine non-specific binding. Bound radioactivity was measured using a scintillation counter & IC50 values for test compounds were determined by non-linear regression analysis using a one-site competition model (Graph Pad Prizm). Due to each test compound being solubilized in a buffered system for the assay, the results presented herein reflect the free base activity.

[2] = molecular target: mu opioid receptor (MOR) (Homo sapiens (Human), UniProt P35372); assay: Competitive radioligand binding at MOR ([3H] Naloxone)
Protocol: as §1, §2

[3] = membranes from CHO-K1 cells expressing MOR, 2 nM [3H] Naloxone, reflects free base activity, read-out: MOR IC50

COCCOCCOCCO[C@H]1CCC[C@H]2[C@H]3Cc4ccc(O)cc4[C@@]12CCN3C [Compound 75, (5α)-5-{2-[2-(2-methoxyethoxy)ethoxy]ethoxy}-17-methylmorphinan-3-ol]
IC50 [1]: > 10000 nM
IC50 [2, 3]: 10 to 100 nM

COCCNc1cc2c(cc1[N+](=O)[O-])C[C@@H]1[C@@H]3CCCC[C@]23CCN1C [Compound 76, N-(2-methoxyethyl)-17-methyl-2-nitromorphinan-3-amine]
IC50 [1]: > 10000 nM
IC50 [2, 3]: > 1000 nM

COCCOCCOCCOCCOCCNc1nc2ccc3c(c2s1)[C@@]12CCCC[C@H]1[C@@H](C3)N(C)CC2 [Compound 77, (7R,7aR,11aR)—N-(2,5,8,11,14-pentaoxahexadecan-16-yl)-14-methyl-7,7a,8,9,10,11-hexahydro-6H-7,11a-(epiminoethano)phenanthro[3,4-d]thiazol-2-amine]
IC50 [1]: > 10000 nM
IC50 [2, 3]: > 1000 nM

COCCOCCOCCNc1nc2ccc3c(c2s1)[C@@]12CCCC[C@H]1[C@@H](C3)N(C)CC2 [Compound 78, (7R,7aR,11aR)—N-(2-(2-(2-methoxyethoxy)ethoxy)ethyl)-14-methyl-7,7a,8,9,10,11-hexahydro-6H-7,11a-(epiminoethano)phenanthro[3,4-d]thiazol-2-amine]
IC50 [1]: > 10000 nM
IC50 [2, 3]: > 1000 nM

COCCOCCC(=O)Nc1ccc2c(c1)[C@@]13CCCC[C@H]1[C@@H](C2)N(C)CC3 [Compound 79, 3-(2-methoxyethoxy)-N-((4bR,8aR,9R)-11-methyl-6,7,8,8a,9,10-hexahydro-5H-9,4b-(epiminoethano)phenanthren-3-yl)propanamide]
IC50 [1]: > 10000 nM
IC50 [2, 3]: > 1000 nM

COCCOCCOCCOCCOCCCC(=O)Nc1nc2cc3c(cc2s1)C[C@@H]1[C@@H]2CCCC[C@]32CCN1C [Compound 80, N-[(4aR,5R,11bR)-14-methyl-2,3,4,4a,5,6-hexahydro-1H-5,11b-(epiminoethano)phenanthro[3,2-d][1,3]thiazol-9-yl]-2,5,8,11,14-pentaoxaoctadecan-18-amide]
IC50 [1]: 1000 to 10000 nM
IC50 [2, 3]: > 1000 nM

CN1CC[C@]23CCCC[C@H]2[C@H]1Cc1cc2nc[nH]c2cc13 [Compound 81, (4aR,5R,11bR)-14-methyl-1,2,3,4,4a,5,6,10-octahydro-5,11b-(epiminoethano)phenanthro[2,3-d]imidazole]
IC50 [1]: > 10000 nM
IC50 [2]: 10 to 100 nM

CN1CC[C@]23CCCC[C@H]2[C@H]1Cc1cc2nc(N)[nH]c2cc13 [Compound 82, (4aR,5R,11bR)-14-methyl-1,2,3,4,4a,5,6,10-octahydro-5,11b-(epiminoethano)phenanthro[2,3-d]imidazol-9-amine]
IC50 [1]: > 10000 nM
IC50 [2, 3]: 100 to 1000 nM

CN1CC[C@]23CCCC[C@H]2[C@H]1Cc1cc2sc(NC(=N)N)nc2cc13 [Compound 84, 1-((4aR,5R,11bR)-14-methyl-2,3,4,4a,5,6-hexahydro-1H-5,11b-(epiminoethano)phenanthro[3,2-d]thiazol-9-yl)guanidine]
IC50 [1]: 1000 to 10000 nM
IC50 [2, 3]: 100 to 1000 nM

CN1CC[C@]23CCCC[C@H]2[C@H]1Cc1cc2sc(NC(=O)C4CCN(C(=O)OC(C)(C)C)CC4)nc2cc13 [Compound 85, tert-butyl 4-{[(4aR,5R,11bR)-14-methyl-2,3,4,4a,5,6-hexahydro-1H-5,11b-(epiminoethano)phenanthro[3,2-d][1,3]thiazol-9-yl]carbamoyl}piperidine-1-carboxylate]
IC50 [1]: > 10000 nM
IC50 [2, 3]: > 1000 nM

COCCN1CC[C@]23CCCC[C@H]2[C@H]1Cc1ccc(Nc2cccnc2)cc13 [Compound 86, 17-(2-methoxyethyl)-N-(pyridin-3-yl)morphinan-3-amine]
IC50 [1]: 1000 to 10000 nM
IC50 [2]: 0.1 to 10 nM

Oc1ccc2c(c1)[C@@]13CCCC[C@H]1[C@@H](C2)N(C1COC1)CC3 [Compound 87, 17-(oxetan-3-yl)morphinan-3-ol]
IC50 [1]: > 10000 nM
IC50 [2, 3]: > 1000 nM

Oc1ccc2c(c1)[C@@]13CCCC[C@H]1[C@@H](C2)N(CC1COC1)CC3 [Compound 88, 17-(oxetan-3-ylmethyl)morphinan-3-ol]
IC50 [1]: 1000 to 10000 nM
IC50 [2]: 10 to 100 nM

CN1CC[C@]23CCCC[C@H]2[C@H]1Cc1cc2cccnc2cc13 [Compound 89, (4aR,5R,12bR)-15-methyl-2,3,4,4a,5,6-hexahydro-1H-5,12b-(epiminoethano)naphtho[2,1-g]quinoline]
IC50 [1]: 1000 to 10000 nM
IC50 [2, 3]: 100 to 1000 nM

CN1CC[C@]23Cc4nc(N)sc4C[C@H]2[C@H]1Cc1ccc(O)cc13 [Compound 90, (6R,6aR,11aS)-9-amino-14-methyl-6,6a,7,11-tetrahydro-5H-6,11a-(epiminoethano)phenanthro[3,2-d]thiazol-2-ol]
IC50 [1]: > 10000 nM
IC50 [2]: 10 to 100 nM

Oc1ccc2c(c1)[C@@]13CCCC[C@H]1[C@@H](C2)N(CC1CCO1)CC3 (stereo partly drawn) [Compound 91, 17-(oxetan-2-ylmethyl)morphinan-3-ol]
IC50 [1]: 1000 to 10000 nM
IC50 [2]: 0.1 to 10 nM

COCCNC(=N)Nc1nc2cc3c(cc2s1)C[C@@H]1[C@@H]2CCCC[C@]32CCN1C [Compound 92, 1-(2-methoxyethyl)-3-((4aR,5R,11bR)-14-methyl-2,3,4,4a,5,6-hexahydro-1H-5,11b-(epiminoethano)phenanthro[3,2-d]thiazol-9-yl)guanidine]
IC50 [1]: > 10000 nM
IC50 [2, 3]: 100 to 1000 nM

COCCN1CC[C@]23CCCC[C@H]2[C@H]1Cc1ccc(Nc2ccncc2)cc13 [Compound 93, 17-(2-methoxyethyl)-N-(pyridin-4-yl)morphinan-3-amine]
IC50 [1]: 0.1 to 100 nM
IC50 [2]: 10 to 100 nM

CN1CC[C@]23CCCC[C@H]2[C@H]1Cc1cc2ncc(N)nc2cc13 [Compound 94, (4aR,5R,12bR)-15-methyl-2,3,4,4a,5,6-hexahydro-1H-5,12b-(epiminoethano)naphtho[1,2-g]quinoxalin-10-amine]
IC50 [1]: 100 to 1000 nM
IC50 [2, 3]: > 1000 nM

CN1CC[C@]23CCCC[C@H]2[C@H]1Cc1cc2nnc(N)nc2cc13 [Compound 95, (4aR,5R,12bR)-15-methyl-2,3,4,4a,5,6-hexahydro-1H-5,12b-(epiminoethano)phenanthro[3,2-e][1,2,4]triazin-10-amine]
IC50 [1]: 1000 to 10000 nM
IC50 [2, 3]: > 1000 nM

COCCOCCN1CC[C@]23CCCC[C@H]2[C@H]1Cc1ccc(N)cc13 [Compound 96, (4bR,8aR,9R)-11-(2-(2-methoxyethoxy)ethyl)-6,7,8,8a,9,10-hexahydro-5H-9,4b-(epiminoethano)phenanthren-3-amine]
IC50 [1]: > 10000 nM
IC50 [2, 3]: > 1000 nM

COCCOCCN1CC[C@]23CCCC[C@H]2[C@H]1Cc1ccc(Nc2ccncc2)cc13 [Compound 98, 17-[2-(2-methoxyethoxy)ethyl]-N-(pyridin-4-yl)morphinan-3-amine]
IC50 [1]: 100 to 1000 nM
IC50 [2]: 100 to 1000 nM

COCCOCCN1CC[C@]23CCCC[C@H]2[C@H]1Cc1ccc(Nc2ccnnc2)cc13 [Compound 99, (4bR,8aR,9R)-11-(2-(2-methoxyethoxy)ethyl)-N-(pyridazin-4-yl)-6,7,8,8a,9,10-hexahydro-5H-9,4b-(epiminoethano)phenanthren-3-amine]
IC50 [1]: 1000 to 10000 nM
IC50 [2, 3]: > 1000 nM

COCCOCCN1CC[C@]23CCCC[C@H]2[C@H]1Cc1ccc(-c2cn[nH]c2)cc13 [Compound 100, (4bR,8aR,9R)-11-(2-(2-methoxyethoxy)ethyl)-3-(1H-pyrazol-4-yl)-6,7,8,8a,9,10-hexahydro-5H-9,4b-(epiminoethano)phenanthrene]
IC50 [1]: 1000 to 10000 nM
IC50 [2, 3]: > 1000 nM
